Type in all cases: cell-based
The test system of test [1] is Pseudomonas aeruginosa (ATCC#15442). Kind of test: Microtiter plate synergy test (MIC, Kull synergy index), bacteria, Trypticase Soy Broth. As to conditions: for Alone ppm (MIC of compound acting alone): Ps. aeruginosa, ppm active ingredient; for MIC: Pseudomonas aeruginosa, read-out: Alone ppm (MIC of compound acting alone). From the text: (§1) One measure of synergism is the industrially accepted method described by Kull, F. C.; Eisman, P. C.; Sylwestrowicz, H. D. and Mayer, R. L., in Applied Microbiology 9:538-541 (1961), using the ratio determined by the formula: Qa/QA+Qb/QB=Synergy Index (“SI”) wherein: • QA=concentration of compound A (first component) in ppm, acting alone, which produced an end point (MIC of Compound A). • Qa=concentration of compound A in ppm, in the mixture, which produced an end point. • QB=concentration of compound B (second component) in ppm, acting alone, which produced an end point (MIC of Compound B). • Qb=concentration of compound B in ppm, in the mixture, which produced an end point.
(§2) When the sum of Qa/QA and Qb/QB is greater than one, antagonism is indicated. […] The lower the SI, the greater the synergy shown by that particular mixture. The minimum inhibitory concentration (MIC) of an antimicrobial compound is the lowest concentration tested under a specific set of conditions that prevents the growth of added microorganisms.
(§3) Synergy tests were conducted using standard microtiter plate assays (12 columns, 1-12×8 rows, A-H) with media designed for optimal growth of the test microorganism. Full-strength nutrient medium, Trypticase Soy Broth, TSB, for bacteria, or Potato Dextrose Broth, PDB, for fungi, was used for testing. Growth medium (160 μL) was dispensed into columns 2-6 and 8-12 of the plate. A total of 40 plates were made with each growth medium. Stock solutions of N-(n-butyl)-1,2-benzisothiazolin-3-one were made from DENSIL DG 20 (20% active ingredient (AI), n-BBIT, in propylene glycol, obtained from Avecia Inc.) at the following concentrations based on total product weight: 5000 ppm (0.2 g DENSIL DG 20 in 40 g growth medium), 4000 ppm, 3500 ppm, 3000 ppm, 2500 ppm, 2000 ppm, 1500 ppm, 1000 ppm and 900 ppm. Isothiazolone stock solutions were made as follows. KATHON LX (1.97% active, 3:1 CMI/MI mixture): active ingredient concentrations at 144 ppm, 36 ppm, 10 ppm, 5 ppm and 1 ppm. ROZONE 2000 (20% active, DCOIT): active ingredient concentrations at 144 ppm, 36 ppm, 10 ppm, 5 ppm and 1 ppm. ROCIMA 550 (9.5% active, MI): active ingredient concentrations at 4800 ppm, 2400 ppm, 900 ppm, 360 ppm and 180 ppm. DENSIL DG 20 stock solution was dispensed in each well of columns 1 and 7 of a microtiter plate, as described below:
(§4) 5000 ppm of stock solution was tested against Ps. aeruginosa in 1A, 7A. The 900 ppm stock was not tested against this organism. A 40 μL aliquot was transferred from each well in column 1 to column 2 and serially diluted to column 5; the aliquots from column 5 was discarded. Column 6 was the control. The same procedure was repeated from column 7 to column 11, and the aliquots from column 11 discarded. At the end of this procedure, each well should contain 160 μL of solution.
(§5) The isothiazolone stock solutions were added to various columns so that each well contained the desired concentration of the isothiazolone and the DENSIL DG20. The DENSIL DG20 alone as well as the isothiazolone alone were included as controls. An example of the combination of 11 ppm KATHON LX 1.5% (on an active ingredient basis) with DENSIL DG20 is shown below:
(§6) DENSIL DG20 alone (columns 1-5); untreated control (column 6); combination evaluations (columns 7-11); KATHON LX 1.5% control (column 12). Inoculum (10 μL) was dispensed into each well from column 1-12. […] The MIC of each biocide was determined from the plates, and then SI was determined.
(§7) The following Tables summarize data for combinations of n-BBIT with other isothiazolones (ITA), along with their synergy index (SI) and the ratio of n-BBIT:ITA. All amounts of n-BBIT and ITA are reported as ppm of active ingredient. Results for testing against various organisms are grouped with results against fungi (F) reported together, and then results against bacteria (B).
(§8) Typical contact time for bacteria is 24-48 hours and 3-7 days for fungi. […]

Test [2] has as its system Klebsiella pneumoniae (ATCC#13583). The test is described as above. Particulars: for MIC: Klebsiella pneumoniae, read-out: Alone ppm (MIC of compound acting alone).
Description: as §1, §2, §3, §4, §5, §6, §7, §8

Test [3] relates to Staphylococcus aureus (ATCC#6538). The test is described as above. As to conditions: S. aureus, ppm active ingredient; for MIC: Staphylococcus aureus, ATCC6538, read-out: Alone ppm (MIC of compound acting alone).
Description: as §1, §2, §3, §4, §5, §6, §7, §8

Test [4] has as its system Escherichia coli (ATCC#8739). The test is described as above. As to conditions: E. coli, ppm active ingredient.
Description: as §1, §2, §3
(§9) 5000 ppm of stock solution was tested against Ps. aeruginosa in 1A, 7A. The 900 ppm stock was not tested against this organism. […]
(§10) DENSIL DG20 alone (columns 1-5); untreated control (column 6); combination evaluations (columns 7-11); KATHON LX 1.5% control (column 12). […] The MIC of each biocide was determined from the plates, and then SI was determined. […]

The test system of test [5] is Proteus mirabilis (ATCC#unknown). The description is as above. Particulars: P. mirabilis, contact time 48 hr, ppm active ingredient.
Description: as §1, §2, §3, §9, §10

For test [6], the system named is Gliocladium viridie (Tricoderma viridie)(isolate). Kind of test: Microtiter plate synergy test (MIC, Kull synergy index), fungi, Potato Dextrose Broth. As to conditions: for Alone ppm (MIC of compound acting alone): G. viridie, ppm active ingredient; for MIC: read-out: Alone ppm (MIC of compound acting alone).
Description: as §1, §2, §3, §4, §5
(§11) DENSIL DG20 alone (columns 1-5); untreated control (column 6); combination evaluations (columns 7-11); KATHON LX 1.5% control (column 12). Inoculum (10 μL) was dispensed into each well from column 1-12. The plates were incubated (bacterial plates at 48 hrs., 30° C.; fungal plates at 7 days, 25° C.). The MIC of each biocide was determined from the plates, and then SI was determined.
(§12) The following Tables summarize data for combinations of n-BBIT with other isothiazolones (ITA), along with their synergy index (SI) and the ratio of n-BBIT:ITA. All amounts of n-BBIT and ITA are reported as ppm of active ingredient. Results for testing against various organisms are grouped with results against fungi (F) reported together, and then results against bacteria (B). […]

In test [7] the test system is Candida albicans (ATCC#10231). The description is as above.
Description: as §1, §2, §3, §4, §5, §11, §12

Test [8] has as its system Fusarium moniliforme (ATCC#58929). Described as above. As to conditions: for MIC: Fusarium verticillioides, read-out: Alone ppm (MIC of compound acting alone).
Description: as §1, §2, §3, §4, §5, §6, §7, §8

The test system of test [9] is Aspergillus niger (ATCC#16404). The test is described as above. As to conditions: for Alone ppm (MIC of compound acting alone): A. niger, ppm active ingredient.
Description: as §1, §2, §3, §4, §5, §6, §7, §8

SMILES strings stand for the structures. Where “and” joins values, the source holds several entries; their conditions need not be identical. Equal entries are not always repeated. Where two headings read alike, the source gives them in different places.

Turning to `CCCCn1sc2ccccc2c1=O` [n-BBIT, N-(n-butyl)-1,2-benzisothiazolin-3-one], the “Alone ppm (MIC of compound acting alone)” value amounted to 711 ppm in test [1] (contact time 24 hr); 711 ppm in test [1] (contact time 48 hr); 267 ppm in [2] (K. pneumoniae, contact time 24 hr, ppm active ingredient); 267 ppm in test [2] (K. pneumoniae, contact time 48 hr, ppm active ingredient); 36 ppm in test [3] (contact time 24 hr); 53 ppm in test [3] (contact time 48 hr). In addition, the “Alone ppm (MIC of compound acting alone)” value in test [4] (contact time 24 hr) was 356 ppm; in test [4] (contact time 48 hr) it was 533 ppm; in test [5] it was 18 ppm; in test [6] (contact time 3 days) it was 711 ppm; in test [6] (contact time 7 days), greater than 711 ppm; in test [7] (C. albicans, contact time 7 days, ppm active ingredient), 124 ppm. The “Alone ppm (MIC of compound acting alone)” value is 267 ppm and 444 ppm in test [8] (F. moniliforme, contact time 3 days, ppm active ingredient); 533 ppm and 356 ppm and 267 ppm in test [8] (F. moniliforme, contact time 7 days, ppm active ingredient); 28 ppm in test [9] (contact time 3 days); 53 ppm in [9] (contact time 7 days).

With `Cn1sccc1=O` [MI, 2-methyl-4-isothiazolin-3-one], the MIC in [1] (ATCC15442, 24 h) is 20 mg/L; in test [1] (ATCC15442, 48 h), 25 mg/L; in [2] (ATCC13583, 24 h) it was 25 mg/L; in test [6] (72 h), 107 mg/L; in [6] (168 h), 133 mg/L; in test [7] (Candida albicans, ATCC10231, 168 h, read-out: Alone ppm (MIC of compound acting alone)), 25 mg/L. The MIC in test [8] (ATCC58929, 72 h) worked out at 200 mg/L; in test [8] (ATCC58929, 168 h) it was 200 mg/L; in [9] (Aspergillus niger, ATCC16404, 168 h, read-out: Alone ppm (MIC of compound acting alone)), 200 mg/L.

Take `CCCCCCCCn1sc(Cl)c(Cl)c1=O` [DCOIT, 4,5-dichloro-2-n-octyl-4-isothiazolin-3-one]: the MIC in test [2] (ATCC13583, K. pneumoniae, contact time 48 hr, ppm active ingredient) stood at 11 mg/L; in test [3] (contact time 24 hr), 6 mg/L; in [3] (contact time 48 hr) it was 9 mg/L; in [5] (Proteus mirabilis, read-out: Alone ppm (MIC of compound acting alone)), 5 mg/L; in test [8] (ATCC58929, 72 h, F. moniliforme, contact time 3 days, ppm active ingredient), 0.28 mg/L; in test [8] (ATCC58929, 168 h, F. moniliforme, contact time 7 days, ppm active ingredient) it was 1 mg/L.

Broadly, the MIC is the least concentration at which growth counts as inhibited.

These data come from patent US20050197366A1, “Antimicrobial composition containing N-(n-butyl)-1,2-benzisothiazolin-3-one” (priority 2004, published 2005).
